Laboratory results published in patent publication US8227210B2, “Positive control proteins for glucose transporter proteins and processes for the generation of such positive control proteins” (East Tennessee State University Research Foundation, priority 2008, dated 2012).
“And” between values parts separate entries of the source, which are not always exact repeats. Equal entries are not always repeated. “Also recorded” adds a separate entry of the source.

What was measured:
[1] = tested on: SEQ ID NO. 12 (GLUT4); test: Euglycemic insulin clamp: GLUT4 in plasma membrane-enriched (PM) fraction of vastus lateralis biopsies, quantitative immunoblot; format: in vivo, human
Experimental: (§1) Muscle biopsies: Percutaneous needle biopsies of vastus lateralis were performed using a 5 mm Bergstrom-Stille needle under suction after an overnight fast and two hours of quiet recumbency as previously described (6). A 50-100 mg specimen was quickly blotted and the entire sample was frozen in liquid nitrogen for later analysis.
(§2) Fractionation of muscle microsamples: We have made minor modifications of our previously described techniques (10). Briefly, 50 mg muscle is removed from the −80° C. freezer and slowly thawed on ice. The muscle is homogenized in 1.0 ml Buffer A (250 mM sucrose, 20 mM HEPES, pH 7.4) with 5 μL protease cocktail (Cocktail Kit Pierce #78410) added. Initial homogenization is 30 seconds with a Pellet Pestle Motor (Kontes). The homogenate is passed through a BD Falcon 100 μm Cell Strainer and after adding 100 μL Buffer B (3M KCl, 250 roM sodium pyrophosphate), is spun at 227,000×g for 30 minutes. The pellet is resuspended in 1.0 mL of Buffer A with protease cocktail using the Pellet Pestle Motor again for 30 seconds. This sample is then spun at 12,000×g for 20 minutes. […]
(§3) Immunoblot technique: Immunoblotting was performed essentially as previously described (11). […] Image analysis was performed on scanned film digital files using Quantity One version 4.5.2 software from Bio-Rad (Hercules, Calif.). […]

[2] = tested on: SEQ ID NO. 16 (GLUT12); test: Euglycemic insulin clamp: GLUT12 in plasma membrane-enriched (PM) fraction of vastus lateralis biopsies, quantitative immunoblot; format: in vivo, human
Experimental: as §1
Fractionation of muscle microsamples: We have made minor modifications of our previously described techniques (10). Briefly, 50 mg muscle is removed from the −80° C. freezer and slowly thawed on ice. The muscle is homogenized in 1.0 ml Buffer A (250 mM sucrose, 20 mM HEPES, pH 7.4) with 5 μL protease cocktail (Cocktail Kit Pierce #78410) added. Initial homogenization is 30 seconds with a Pellet Pestle Motor (Kontes). The homogenate is passed through a BD Falcon 100 μm Cell Strainer and after adding 100 μL Buffer B (3M KCl, 250 roM sodium pyrophosphate), is spun at 227,000×g for 30 minutes. The pellet is resuspended in 1.0 mL of Buffer A with protease cocktail using the Pellet Pestle Motor again for 30 seconds. This sample is then spun at 12,000×g for 20 minutes. The pellet is resuspended in 200 μl, Boston Bioproducts Triton Lysis Buffer with Protease Inhibitor (BP-117) using the Pellet Pestle Motor. This sample is designated PM, the plasma membrane-enriched fraction. The supernate is removed and spun at 227,000×g for 30 minutes. The resulting pellet is also resuspended in 200 μL Boston. Bioproducts Triton Lysis Buffer, and is designated LDM, the low density microsomes fraction. PM protein content averaged 139±7 μg and LDM contained 265±8 μg protein. In studies performed on human control muscle sample fractions, the PM fraction contained 80% of the immunological signal for the plasma membrane marker Na/K+ ATPase α-I (05-369 from Millipore). LDM contained 67% of the golgi marker mannosidase II (AB3712 from Chemicon).
as §3

[3] = tested on: SEQ ID NO. 10 (GLUT1); test: Euglycemic insulin clamp: GLUT1 in plasma membrane-enriched (PM) fraction of vastus lateralis biopsies, immunoblot; format: in vivo, human
Experimental: as §1, §2, §3

[4] = tested on: SEQ ID NO. 12 (GLUT4) translocation in L6 myoblasts; test: Insulin-stimulated translocation of GLUT4 to PM fraction in L6 myoblasts and its inhibition by PI3-K inhibitor; format: cell-based, rat; conditions: L6 cells, 10 ng/mL insulin
Experimental: (§4) Fractionation of L6 muscle cells: L6 cells were obtained from ATCC and cultured in D.MEM medium with 10% fetal bovine serum with subculturing every three to five days. For the studies described below, cells were grown to near confluence in 100 mm dishes. Cells were harvested in 1 mL homogenization Buffer A containing 5 μL protease inhibitors using a rubber policeman. The remainder of the technique is the same as muscle microsamples. The yield of protein averaged 199±14 μg for PM and 419±22 μg for LDM. Immunoblot technique: Immunoblotting was performed essentially as previously described (11). In general, 10-20 μg protein from muscle homogenate or fractions was separated on a 10% polyacrylamide gel using the Laemmli system (12), transferred to a nitrocellulose membrane, subjected to blocking with 2.5% non-fat dry milk in phosphate-buffered saline, incubated with a validated dilution of one of the anti-GLUT antibodies above including 1.25% milk, and developed with the enhanced chemiluminescence reagent and X-ray film. Image analysis was performed on scanned film digital files using Quantity One version 4.5.2 software from Bio-Rad (Hercules, Calif.). The specificity of the antibodies employed for GLUT1 SEQ ID NO. […] After harvesting and fractionating the cells, samples from the fractions were subjected to immunoblotting and digital images were quantified by image analysis software. […]

[5] = tested on: SEQ ID NO. 16 (GLUT12) translocation in L6 myoblasts; test: Insulin-stimulated translocation of GLUT12 to PM fraction in L6 myoblasts and its inhibition by PI3-K inhibitor; format: cell-based, rat; conditions: L6 cells, 10 ng/mL insulin
Experimental: as §4

[6] = tested on: SEQ ID NO. 12 (GLUT4); conditions: cited from earlier work
[7] = Euglycemic insulin clamp: plasma insulin concentration and glucose infusion rate
Experimental: Euglycemic insulin clamp studies: Insulin infusion studies were performed essentially as previously described (8; 9) except no isotope or somatostatin were used in this study. Mter an overnight fast, subjects were maintained in quiet recumbency for two hours to minimize the effects of muscular activity on protein subcellular localization. After a baseline muscle biopsy, a constant insulin infusion was performed at 40 mU/m2/min for three hours. A second muscle biopsy was performed on the contralateral side in the last 10 minutes of the insulin infusion period.

insulin: insulin given as constant euglycemic infusion at 40 mU/m2/min, or 10 ng/mL on L6 cells
GLUT4 distribution in the plasma membrane-enriched (PM) fractions ([1]; end of 3 h insulin infusion at 40 mU/m2/min, six normal volunteers, baseline 13%): 42% | Change of GLUT4 content of the PM fraction in response to insulin infusion ([1]; insulin infusion vs baseline, each subject): more than doubled; also recorded: at least doubled | GLUT12 distribution in the plasma membrane-enriched (PM) fractions ([2]; end of 3 h insulin infusion at 40 mU/m2/min, six normal volunteers, baseline 17%): 38% | Change of GLUT12 content of the PM fraction in response to insulin infusion ([2]; insulin infusion vs baseline): more than doubled in four of the six subjects | Minimum increase of GLUT12 content of the PM fraction ([2]; insulin infusion vs baseline, minimum response among six subjects): ≥ 60% | Change of GLUT1 distribution/signal in LDM and PM fractions after insulin ([3]; insulin infusion vs baseline): did not change; also recorded: no change | GLUT1 content in the PM fractions ([3]; post-insulin infusion, subjects 1-5, baseline 78±7%): 79±9% and 79% | Translocation of GLUT4 to the PM fraction by insulin [4]: caused translocation; also recorded: moved from the fraction to the PM fraction | Translocation of GLUT12 to the PM fraction by insulin [5]: translocated; also recorded: caused translocation; also recorded: moved from the fraction to the PM fraction | Increase in GLUT4 in the muscle plasma membrane fractions (Zierath) ([6]; after euglycemic insulin infusion, same infusion rate, literature ref 26): 60% | Increase in sarcolemma-associated GLUT4 by confocal quantitative immunohistochemistry (Kelley) ([6]; control subjects, literature ref 24): 85% | Increase in GLUT4 in muscle plasma membrane-enriched fractions (Garvey) ([6]; ten-fold higher insulin infusion, control subjects, literature ref 25): 2.8 fold | Plasma insulin concentration ([7]; infusion of insulin at 40 mU/m2/min, baseline 28±7 pmol/L): 343 ± 21 pmol/L | Mean glucose infusion rate to maintain blood glucose of 85 mg/dL ([7]; steady state period of the insulin infusion): 8.87 mg/kg·min
